Among the data in ChEMBL document CHEMBL5729293, “Inhibitors of KEAP1-Nrf2 protein-protein interaction” (2022) are Kd values, retold here.

SMILES strings stand for the structures. Some results are limits rather than exact numbers.

The assay in a line: Fluorescence Based Assay: The details of the KEAP1 KELCH ThermoFluor® Assay Construct are as follows: Kelch domain of human KEAP 1 (321-624 aa) was used in the assay. The protein was expressed in E. coli with 6His tag that was cleaved prior to receipt for use.ThermoFluor® experiments were carried out using instruments owned by Janssen Research and Discovery, L.L.C. through its acquisition of 3-Dimensional Pharmaceuticals, Inc. 1,8-ANS (Invitrogen) was used as a fluorescent dye. Protein (KEAP Kelch) and compound solutions were dispensed into black 384-well polypropylene PCR microplates (Abgene) and overlayed with silicone oil (1 μL, Fluka, type DC 200) to prevent evaporation.Reference wells contained KEAP Kelch without compounds, and the assay conditions were as follows: 1.1 μM (0.037mg/mL) KEAP Kelch, 80 μM 1,8-ANS, 25 mM PIPES, pH 7.0, 100 mM NaCl, 0.002% Tween-20.
For `Cc1cnc2c(c1)S(=O)(=O)N(Cc1nc(C(CC(=O)O)c3ccn4c(C(F)(F)F)nnc4c3C)ccc1C)C[C@H]1CCCCN21` (stereo not given in full), the Kd was less than 1 nM.

Compound `Cc1ccc(C(CC(=O)O)c2ccn3c(C(F)F)nnc3c2C)cc1CN1CC2(CCOCC2)Oc2ccc(F)cc2S1(=O)=O` (stereo not given) registered a dissociation constant (Kd) of less than 1 nM.

The compound `Cc1cnc2c(c1)S(=O)(=O)N(Cc1cc([C@@H](c3ccn4c(C(F)F)nnc4c3C)C(C)(C)C(=O)O)ncc1C)CC1(CC1)O2` yielded a Kd of less than 1 nM.

Compound `CCn1nnc2c(C)c([C@@H](CC(=O)O)c3ccc(C)c(CN4C[C@H]5CCCN5c5ncccc5S4(=O)=O)n3)ccc21` registered a Kd of less than 1 nM.

As for `Cc1cnc2c(c1)S(=O)(=O)N(Cc1cc([C@H](c3ccn4c(C(F)(F)F)nnc4c3C)C(C)(C)C(=O)O)ccc1C)C[C@@]1(CCOC1)O2`, the dissociation constant Kd was less than 1 nM.

In turn, `Cc1ccc([C@@H](c2ccn3c(C(F)(F)F)nnc3c2C)C(C)(C)C(=O)O)cc1CN1CC2(CCOCC2)Oc2nc(NCCCO)ccc2S1(=O)=O` came in with a Kd of less than 1 nM.

As to `Cc1ccc([C@@H](CC(=O)O)c2ccn3c(C(F)(F)F)nnc3c2C)nc1CN1C[C@H]2CCCCN2c2ncc(Cl)cc2S1(=O)=O`, the Kd was less than 1 nM.

In the case of `Cc1ccc([C@H](CC(=O)O)c2ccn3c(C(F)(F)F)nnc3c2C)nc1CN1C[C@@H]2CCCCN2c2ncccc2S1(=O)=O`, the dissociation constant Kd was less than 1 nM.

In the case of `CCn1nnc2c(C)c([C@H](CC(=O)O)c3ccc(C)c(CN4C[C@H]5CCCN5c5ccccc5S4(=O)=O)c3)ccc21`, the Kd was less than 1 nM.

Regarding `Cc1ccc([C@@H](c2ccn3c(C(F)(F)F)nnc3c2C)C(C)(C)C(=O)O)nc1CN1CC2(CCOCC2)Oc2nc(OCCN3CCOCC3)ccc2S1(=O)=O`, the equilibrium dissociation constant (Kd) is less than 1 nM.

Compound `Cc1ccc([C@H](CC(=O)O)c2ccn3c(C(F)(F)F)nnc3c2C)cc1CN1C[C@H]2CCCN2c2ncc(C#N)cc2S1(=O)=O` yielded a Kd of less than 1 nM.

`Cc1ccc([C@@H](c2ccn3c(C(F)(F)F)nnc3c2C)C(C)(C)C(=O)O)cc1CN1CC2(CC2)Oc2nc(OCCN3CCOCC3)c(C)cc2S1(=O)=O` gave a Kd of less than 1 nM.

In the case of `Cc1ccc([C@H](CC(=O)O)c2ccn3c(C(F)(F)F)nnc3c2C)cc1CN1C[C@H]2CCCCN2c2ccccc2S1(=O)=O`, the dissociation constant (Kd) was less than 1 nM.

The compound `Cc1ccc([C@@H](CC(=O)O)c2ccn3c(C(F)(F)F)nnc3c2)cc1CN1C[C@@H]2CCCN2c2ncccc2S1(=O)=O` had a Kd of less than 1 nM.

The compound `Cc1ccc([C@@H](c2ccn3c(C(F)(F)F)nnc3c2C)C(C)(C)C(=O)O)cc1CN1CC2(CCOCC2)Oc2nc(OC(C)CN3CCCCC3)c(C)cc2S1(=O)=O` (stereo not given in full) had a dissociation constant Kd of less than 1 nM.

`Cc1cnc(C(c2ccn3c(C(F)(F)F)nnc3c2C)C(C)(C)C(=O)O)cc1CN1CC2(CCOCC2)Oc2ncccc2S1(=O)=O` (stereo not given) had a Kd of less than 1 nM.

For the compound `Cc1cnc2c(c1)S(=O)(=O)N(Cc1cc([C@H](CC(=O)O)c3ccn4c(C(F)F)nnc4c3C)ccc1C)CC1(CC1)O2`, the Kd is less than 1 nM.

`CC[C@@H]1CN(Cc2cc(C(CC(=O)O)c3ccn4c(C)nnc4c3)ccc2C)S(=O)(=O)c2cccnc2O1` (stereo not given in full) had a Kd of less than 1 nM.

For the compound `Cc1ccc([C@H](CC(=O)O)c2ccc3c(nnn3C3CC3)c2C)cc1CN1C[C@H]2CCCCN2c2ncccc2S1(=O)=O`, the Kd was less than 1 nM.

`Cc1ncc([C@H](c2ccn3c(C(F)(F)F)nnc3c2C)C(C)(C)C(=O)O)cc1CN1CC2(CCOCC2)Oc2ncccc2S1(=O)=O`: the dissociation constant (Kd) was less than 1 nM.

In turn, `Cc1cnc([C@@H](c2ccn3c(C(F)(F)F)nnc3c2C)C(C)(C)C(=O)O)cc1CN1CC2(CC2)Oc2nc(OCCN3CCCCC3)c(C)cc2S1(=O)=O` yielded a Kd of less than 1 nM.

Turning to `Cc1ccc([C@@H](c2ccn3c(C(F)(F)F)nnc3c2C)C(C)(C)C(=O)O)cc1CN1CC2(CCOCC2)Oc2nc(O[C@@H](C)CN3CCCCC3)c(C)cc2S1(=O)=O`, the dissociation constant (Kd) is less than 1 nM.

Compound `Cc1ccc([C@H](CC(=O)O)c2ccn3c(C(F)(F)F)nnc3c2C)cc1CN1C[C@@H]2CCCCN2c2ncc(Cl)cc2S1(=O)=O` came in with a dissociation constant Kd of less than 1 nM.

Regarding `Cc1ccc([C@H](CC(=O)O)c2ccn3c(C(F)(F)F)nnc3c2C)cc1CN1C[C@H]2CCCCN2c2ncccc2S1(=O)=O`, the Kd is less than 1 nM.

`CC[C@@H]1CN(Cc2cc(C(CC(=O)O)c3cc(OC(F)F)c4c(c3)nnn4C)ccc2C)S(=O)(=O)c2cccnc2O1` (stereo not given in full): the dissociation constant Kd is less than 1 nM.

Turning to `Cc1ccc(C(c2ccc3c(nnn3CC3CC3)c2C)C(C)(C)C(=O)O)nc1CN1CC2(CCOCC2)Oc2nc(OCCN3CCOCC3)ccc2S1(=O)=O` (stereo not given), the Kd was less than 1 nM.

In turn, `Cc1ccc([C@H](CC(=O)O)c2ccn3c(C(F)(F)F)nnc3c2C)cc1CN1CC2(CC2)Oc2ncc(F)cc2S1(=O)=O` registered a Kd of less than 1 nM.

In the case of `Cc1ccc([C@H](c2ccn3c(C(F)(F)F)nnc3c2C)C(C)(C)C(=O)O)cc1CN1CC2(CCOCC2)Oc2nc(N[C@H](C)C(C)(C)O)c(C)cc2S1(=O)=O`, the dissociation constant (Kd) was less than 1 nM.

Take `Cc1ccc([C@@H](c2ccc3c(nnn3CC3CC3)c2C)C(C)(C)C(=O)O)nc1CN1CC2(CCOCC2)Oc2nc(OCCN3CCOCC3)ccc2S1(=O)=O`: the Kd is less than 1 nM.

Compound `CC[C@@H]1CN(Cc2nc([C@H](CC(=O)O)c3ccc4c(nnn4C4CC4)c3C)ccc2C)S(=O)(=O)c2cccnc2O1` came in with a Kd of less than 1 nM.

`Cc1ccc([C@H](CC(=O)O)c2ccn3c(C(F)(F)F)nnc3c2C)cc1CN1CC2(CC2)Oc2nc(NCCO)ccc2S1(=O)=O` displayed an equilibrium dissociation constant (Kd) of less than 1 nM.

For `Cc1cnc2c(c1)S(=O)(=O)N(Cc1cc(C(c3ccn4c(C5CC5)nnc4c3C)C(C)(C)C(=O)O)ccc1C)CC1(CC1)O2` (stereo not given), the Kd was less than 1 nM.

As to `CCn1nnc2c(C)c([C@H](c3cc(CN4CC5(CC5)Oc5ncc(C)cc5S4(=O)=O)c(C)cn3)C(C)(C)C(=O)O)ccc21`, the Kd is less than 1 nM.

In turn, `Cc1ccc([C@H](CC(=O)O)c2ccn3c(C(F)(F)F)nnc3c2C)cc1CN1CC2(COC2)Oc2ncccc2S1(=O)=O` gave a Kd of less than 1 nM.

On to `Cc1cc2c(nc1OCCN1CCCC1)OC1(CC1)CN(Cc1cc([C@@H](c3ccc4c(nnn4C4CC4)c3C)C(C)(C)C(=O)O)cnc1C)S2(=O)=O`, for which the dissociation constant (Kd) was less than 1 nM.

In turn, `Cc1ccc([C@@H](c2ccn3c(C(F)F)nnc3c2C)C(C)(C)C(=O)O)nc1CN1CC2(COC2)Oc2ncccc2S1(=O)=O` had a dissociation constant (Kd) of less than 1 nM.

Compound `CC[C@@H]1CN(Cc2cc([C@@H](CC(=O)O)c3cc(OC(F)F)c4c(c3)nnn4C)ccc2C)S(=O)(=O)c2cccnc2O1` yielded a Kd of less than 1 nM.

`Cc1ccc([C@@H](c2ccn3c(C(F)F)nnc3c2C)C(C)(C)C(=O)O)cc1CN1CC2(CCOCC2)Oc2nc(OCCN3CCCC3)c(C)cc2S1(=O)=O` yielded a Kd of less than 1 nM.

`Cc1ccc([C@H](CC(=O)O)c2ccn3c(C(F)F)nnc3c2C)cc1CN1CC2(CCOCC2)Oc2ncc(F)cc2S1(=O)=O`: the Kd was less than 1 nM.

Compound `Cc1ccc([C@H](c2ccn3c(C(F)(F)F)nnc3c2C)C(C)(C)C(=O)O)cc1CN1CC2(CCOCC2)Oc2nc(N[C@@H](C)CCO)c(C)cc2S1(=O)=O` gave a Kd of less than 1 nM.

With `Cc1ccc([C@H](CC(=O)O)c2ccn3c(C(F)(F)F)nnc3c2C)cc1CN1CC2(CC2)Oc2ncc(C#N)cc2S1(=O)=O`, the dissociation constant Kd was less than 1 nM.

In turn, `CCn1nnc2c(C)c([C@@H](CC(=O)O)c3ccc(C)c(CN4C[C@@H]5CCCN5c5ccccc5S4(=O)=O)c3)ccc21` gave an equilibrium dissociation constant (Kd) of less than 1 nM.

Compound `Cc1ccc([C@H](c2ccn3c(C(F)(F)F)nnc3c2)C(C)(C)C(=O)O)cc1CN1CC2(CCOCC2)Oc2ncccc2S1(=O)=O` gave a dissociation constant (Kd) of less than 1 nM.

On to `Cc1ccc([C@H](CC(=O)O)c2ccn3c(C(F)(F)F)nnc3c2C)cc1CN1CC2(CC2)Oc2nc(N(C)CCCO)ccc2S1(=O)=O`, for which the Kd is less than 1 nM.

On to `Cc1cc2cc([C@H](CC(=O)O)c3ccc(C)c(CN4C[C@@H]5CCCCN5c5ncccc5S4(=O)=O)c3)n(C)c2nn1`, for which the Kd is less than 1 nM.

With `Cc1ccc([C@H](CC(=O)O)c2ccn3c(C(F)(F)F)nnc3c2C)nc1CN1C[C@@H]2CCCCN2c2ncc(Cl)cc2S1(=O)=O`, the equilibrium dissociation constant (Kd) is less than 1 nM.

With `Cc1ncc([C@H](c2ccc3c(nnn3C3CC3)c2C)C(C)(C)C(=O)O)cc1CN1CC2(CCOCC2)Oc2ncccc2S1(=O)=O`, the Kd was less than 1 nM.

The compound `Cc1ccc([C@@H](CC(=O)O)c2ccn3c(C(F)F)nnc3c2C)cc1CN1C[C@@H]2CCCCN2c2ncccc2S1(=O)=O` had a Kd of less than 1 nM.

Compound `CC[C@@H]1CN(Cc2cc(C(CC(=O)O)c3ccn4c(C(F)(F)F)nnc4c3C)ccc2C)S(=O)(=O)c2cccnc2O1` (stereo not given in full) returned a Kd of less than 1 nM.

The compound `Cc1ccc([C@@H](CC(=O)O)c2ccn3c(C(F)F)nnc3c2C)cc1CN1CC2(CC2)Oc2ncccc2S1(=O)=O` had a Kd of less than 1 nM.

For `Cc1ccc([C@H](CC(=O)O)c2ccn3c(C(F)(F)F)nnc3c2C)cc1CN1CC2(CC2)Oc2nc(NCCN3CCCCC3)ccc2S1(=O)=O`, the Kd is less than 1 nM.

With `Cc1cnc2c(c1)S(=O)(=O)N(Cc1cc([C@H](c3ccn4c(C5CC5)nnc4c3C)C(C)(C)C(=O)O)ccc1C)CC1(COC1)O2`, the dissociation constant Kd is less than 1 nM.

For the compound `Cc1ccc([C@H](c2ccn3c(C(F)F)nnc3c2C)C(C)(C)C(=O)O)nc1CN1CC2(CC2)Oc2nc(OCCN3CCCCC3)c(C)cc2S1(=O)=O`, the Kd was less than 1 nM.

Take `Cc1cnc2c(c1)S(=O)(=O)N(Cc1cc(C(c3ccn4c(C(F)(F)F)nnc4c3C)C(C)(C)C(=O)O)cnc1C)CC1(CCOCC1)O2` (stereo not given): the dissociation constant (Kd) is less than 1 nM.

For `Cc1ccc(C(CC(=O)O)c2ccn3c(C(F)F)nnc3c2C)cc1CN1C[C@]2(C)CCCN2c2ncccc2S1(=O)=O` (stereo not given in full), the dissociation constant (Kd) is less than 1 nM.

As to `Cc1ccc([C@@H](c2ccn3c(C(F)(F)F)nnc3c2C)C(C)(C)C(=O)O)cc1CN1CC2(CC2)Oc2ncccc2S1(=O)=O`, the equilibrium dissociation constant (Kd) was less than 1 nM.

In turn, `Cc1ccc([C@H](CC(=O)O)c2ccn3c(C(F)(F)F)nnc3c2C)cc1CN1CC2(CC2)Oc2nc(NCCCO)ccc2S1(=O)=O` had a Kd of less than 1 nM.

The compound `CC[C@@H]1CN(Cc2cc([C@@H](CC(=O)O)c3ccn4c(C(F)F)nnc4c3C)ccc2C)S(=O)(=O)c2cccnc2O1` displayed a dissociation constant Kd of less than 1 nM.

`Cc1ccc([C@@H](CC(=O)O)c2ccn3c(C(F)(F)F)nnc3c2C)cc1CN1C[C@H]2CCCCN2c2ncccc2S1(=O)=O` gave a Kd of less than 1 nM.

`Cc1cnc2c(c1)S(=O)(=O)N(Cc1nc([C@H](CC(=O)O)c3ccn4c(C(F)(F)F)nnc4c3C)ccc1C)C[C@H]1CCCCN21` gave a Kd of less than 1 nM.
